Results published in article PMC9776381, “A Large-Scale High-Throughput Screen for Modulators of SERCA Activity” (Biomolecules, 2022).

Experiments:
[1] = target: T1, SERCA1a (skeletal SR vesicles) (Oryctolagus cuniculus, UniProt P04191); assay: Oxalate-supported Ca2+-uptake assay, skeletal SR (CRC at pCa 5.4); assay type: biochemical, rabbit; settings: for Skeletal SR Ca^2+ Uptake Activity Percent Increase: maximal effect of CRC; for Skeletal SR Ca^2+ Uptake Activity Percent Increase / EC50: pCa 5.4, mean ± SD, dash = no observable effect; for EC50: read-out: Skeletal SR Ca^2+ Uptake Activity EC50
T1 construct: rabbit muscles were freshly harvested from the back and hind leg of New Zealand White rabbits and purified using a sucrose gradient; from tissue; host or cells: rabbit (New Zealand White) back and hind leg skeletal muscle, light SR vesicles
Method: (§1) For skeletal SR, rabbit muscles were freshly harvested from the back and hind leg of New Zealand White rabbits and purified using a sucrose gradient. The resulting light skeletal SR contains 80% SERCA, as a proportion of total protein content. Cardiac SR vesicles were isolated from fresh porcine left ventricular tissue.
(§2) To determine compound effect on the Ca^2+-uptake activity of SERCA1a and SERCA2a, we used an oxalate-supported assay. A solution containing 50 mM MOPS (pH 7.0), 100 mM KCl, 30 mg/mL sucrose, 1 mM EGTA, 10 mM potassium oxalate, 2 µM Fluo-4, 30 µg/mL cardiac SR vesicles or 12 μg/mL skeletal SR vesicles, and CaCl2 calculated to reach the desired free [Ca^2+] was dispensed into 384-well black walled, transparent bottomed plates (Greiner Bio-One) containing the tested small molecule and incubated at 21 °C for 20 min while covered and protected from light. To start the reaction, MgATP was added to a final concentration of 5 mM, and the decrease in 485-nm excited fluorescence was monitored at 520 nm for 15 min using a FLIPR Tetra (Molecular Devices, San Jose, CA, USA).
While Ca^2+-dependent ATPase activity is a direct measure of SERCA activity, coupling of ATP hydrolysis to transport of Ca^2+ across the SR membrane is essential for the role of SERCA in cellular physiology. Therefore, we next asked whether our ATPase-based HTS assay could successfully identify compounds that also increase Ca^2+ uptake of SERCA.

[2] = target: T2, SERCA2a (cardiac SR vesicles) (Sus scrofa, UniProt P11607); assay: NADH-coupled Ca-ATPase activity assay, cardiac SR (CRC at pCa 5.4); assay type: biochemical, porcine; settings: pCa 5.4, mean ± SD, n = 3; for Cardiac SR ATPase Activity Percent Increase: maximal effect of CRC
T2 construct: Cardiac SR vesicles were isolated from fresh porcine left ventricular tissue; from tissue; host or cells: porcine left ventricular tissue, cardiac SR vesicles
Method: as §1
(§3) Functional assays were performed using rabbit light skeletal sarcoplasmic (SR) vesicles. For high-throughput NADH-coupled screening, assay mix containing a final concentration of 50 mM MOPS (pH 7.0), 100 mM KCl, 1 mM EGTA, 0.2 mM NADH, 1 mM phosphoenol pyruvate, 10 IU/mL of pyruvate kinase, 10 IU/mL of lactate dehydrogenase, 1 µM of the calcium ionophore A23187, 4 µg/mL skeletal SR, and added CaCl2 to obtain pCa 5.4 was dispensed into 384-well DIVERSet assay plates containing 50 nL of compound or DMSO using a FlexDrop Precision liquid dispenser (Perkin Elmer, Waltham, Massachusetts). Plates were sealed, covered from light, and incubated at room temperature for 20 min. The assay was then started by dispensing MgATP (termed “initiation mix”), to a final concentration of 5 mM in each well (80 µL total assay volume) with the FlexDrop liquid dispenser (Perkin Elmer). The time dependence of absorbance was measured at 340 nm in a SpectraMax Plus384 microplate spectrophotometer (Molecular Devices, Sunnyvale, CA). For follow-up concentration response curves of Hit compounds, 400 nL of either compound or DMSO was dispensed into each well using an Echo liquid dispenser (Beckman Coulter). Testing dose-dependent compound effects on rabbit skeletal SR vesicles was done using the same method, as described above in 384-well plates. Determining compound effects on cardiac SR vesicles was done in a similar method as above, with the exception of 10 µg/mL of cardiac SR incubated in assay mix consisting of a final concentration of 50 mM MOPS (pH 7.0), 100 mM KCl, 1 mM EGTA, 1 µM of the calcium ionophore A23187, and added CaCl2 to the desired free calcium values. After a 20 min incubation, the “initiation mix”, containing a final concentration of 0.2 mM NADH, 1 mM phosphoenol pyruvate, 10 IU/mL of pyruvate kinase, 10 IU/mL of lactate dehydrogenase, and 5mM MgATP, was dispensed into each well.
While initial screening was performed in skeletal SR enriched with the SERCA1a isoform, high sequence and structural homology with the cardiac SERCA2a isoform predicts a potential for cross reactivity of the Hit compounds. To test this hypothesis, we performed ATPase analyses with cardiac SR microsomes, which are enriched for SERCA2a.

[3] = target: T3, SERCA1a (rabbit light skeletal SR vesicles) (Oryctolagus cuniculus, UniProt P04191); assay: NADH-coupled Ca-ATPase activity assay, skeletal SR (CRC at pCa 5.4); assay type: biochemical; settings: n = 3; for Skeletal SR ATPase Activity Percent Increase: maximal effect of CRC 0.05 to 50 µM, pCa 5.4, relative to DMSO, mean ± SD; for EC50: pCa 5.4, mean ± SD
T3 construct: rabbit muscles were freshly harvested from the back and hind leg of New Zealand White rabbits and purified using a sucrose gradient; from tissue; host or cells: rabbit (New Zealand White) back and hind leg skeletal muscle, light SR vesicles
Method: as §1, §3
The initial screen assay was performed with compounds at 10 µM. To better study the selected Hit compounds for their activation potential, we performed ATPase analyses (in triplicate) over a range of Hit concentrations (0.05 to 50 µM), generating concentration-response curves (CRCs) to determine maximal effects and EC50 (Figure 2). We used the same Ca^2+ concentration (pCa 5.4) as in the screening assays, thus focusing on the effects on the maximal velocity of SERCA. Two of the selected Hits yielded no response in follow-up assays, probably due to a mismatch in chemical composition between the library compound and the subsequently ordered compound (DS95401435 and DS41547941). This type of discrepancy is a typical hurdle in the screening process. Each of the other 19 compounds produced a substantial increase in ATPase activity, ranging from 30% to 72% (Table 1 and Supporting Information, Figure S1), as expected due to similarity of the CRC assay to the initial screen.

[4] = target: T2, SERCA2a (cardiac SR vesicles); assay: Oxalate-supported Ca2+-uptake assay, cardiac SR (CRC at pCa 5.4); assay type: biochemical, porcine; settings: n = 3; for Cardiac SR Ca^2+ Uptake Activity Percent Increase: maximal effect of CRC; for Cardiac SR Ca^2+ Uptake Activity Percent Increase / EC50: pCa 5.4, mean ± SD, dash = no observable effect; for EC50: read-out: Cardiac SR Ca^2+ Uptake Activity EC50
Method: as §1, §2
To determine whether the observed increases in SERCA2a ATPase activity translate to Ca^2+ uptake function, we applied our Ca^2+ transport assay to test our selected Hit compounds in cardiac SR (Table 1). Indeed, 16 of the 19 compounds yielded a clear increase in Ca^2+ uptake activity. In fact, eight compounds generated an increase at least 50% greater in cardiac SR than in skeletal SR. Three compounds had either an inhibitory or no effect on Ca^2+ transport, and two of these were also non-activating compounds in skeletal SR.

T2 sequence (P11607 1-997 isoform P11607-2): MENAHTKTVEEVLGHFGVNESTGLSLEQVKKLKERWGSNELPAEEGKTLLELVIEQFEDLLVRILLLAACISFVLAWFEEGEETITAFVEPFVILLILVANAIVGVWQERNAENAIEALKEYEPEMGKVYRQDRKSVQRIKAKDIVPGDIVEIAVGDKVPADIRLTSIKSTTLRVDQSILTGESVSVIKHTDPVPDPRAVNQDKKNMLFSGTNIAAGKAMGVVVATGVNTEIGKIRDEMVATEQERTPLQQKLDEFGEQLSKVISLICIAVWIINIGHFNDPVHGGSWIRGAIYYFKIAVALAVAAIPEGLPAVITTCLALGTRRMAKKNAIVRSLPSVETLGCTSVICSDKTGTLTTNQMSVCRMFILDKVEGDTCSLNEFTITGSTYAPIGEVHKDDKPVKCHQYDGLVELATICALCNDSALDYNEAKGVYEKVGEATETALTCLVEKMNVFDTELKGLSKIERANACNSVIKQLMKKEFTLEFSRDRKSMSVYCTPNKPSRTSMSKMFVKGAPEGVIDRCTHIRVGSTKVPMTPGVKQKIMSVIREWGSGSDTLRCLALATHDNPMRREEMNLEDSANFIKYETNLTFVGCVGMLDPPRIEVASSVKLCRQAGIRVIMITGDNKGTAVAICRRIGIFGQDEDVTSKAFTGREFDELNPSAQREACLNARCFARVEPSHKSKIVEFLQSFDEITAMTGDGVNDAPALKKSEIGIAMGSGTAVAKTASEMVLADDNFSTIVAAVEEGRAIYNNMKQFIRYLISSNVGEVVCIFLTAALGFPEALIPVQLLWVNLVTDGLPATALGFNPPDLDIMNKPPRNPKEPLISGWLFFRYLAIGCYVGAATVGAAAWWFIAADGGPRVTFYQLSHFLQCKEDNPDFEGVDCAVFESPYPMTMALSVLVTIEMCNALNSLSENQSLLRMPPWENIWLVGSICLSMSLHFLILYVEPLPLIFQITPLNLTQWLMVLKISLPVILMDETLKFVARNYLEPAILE
T1 sequence (P04191 1-994 isoform P04191-2): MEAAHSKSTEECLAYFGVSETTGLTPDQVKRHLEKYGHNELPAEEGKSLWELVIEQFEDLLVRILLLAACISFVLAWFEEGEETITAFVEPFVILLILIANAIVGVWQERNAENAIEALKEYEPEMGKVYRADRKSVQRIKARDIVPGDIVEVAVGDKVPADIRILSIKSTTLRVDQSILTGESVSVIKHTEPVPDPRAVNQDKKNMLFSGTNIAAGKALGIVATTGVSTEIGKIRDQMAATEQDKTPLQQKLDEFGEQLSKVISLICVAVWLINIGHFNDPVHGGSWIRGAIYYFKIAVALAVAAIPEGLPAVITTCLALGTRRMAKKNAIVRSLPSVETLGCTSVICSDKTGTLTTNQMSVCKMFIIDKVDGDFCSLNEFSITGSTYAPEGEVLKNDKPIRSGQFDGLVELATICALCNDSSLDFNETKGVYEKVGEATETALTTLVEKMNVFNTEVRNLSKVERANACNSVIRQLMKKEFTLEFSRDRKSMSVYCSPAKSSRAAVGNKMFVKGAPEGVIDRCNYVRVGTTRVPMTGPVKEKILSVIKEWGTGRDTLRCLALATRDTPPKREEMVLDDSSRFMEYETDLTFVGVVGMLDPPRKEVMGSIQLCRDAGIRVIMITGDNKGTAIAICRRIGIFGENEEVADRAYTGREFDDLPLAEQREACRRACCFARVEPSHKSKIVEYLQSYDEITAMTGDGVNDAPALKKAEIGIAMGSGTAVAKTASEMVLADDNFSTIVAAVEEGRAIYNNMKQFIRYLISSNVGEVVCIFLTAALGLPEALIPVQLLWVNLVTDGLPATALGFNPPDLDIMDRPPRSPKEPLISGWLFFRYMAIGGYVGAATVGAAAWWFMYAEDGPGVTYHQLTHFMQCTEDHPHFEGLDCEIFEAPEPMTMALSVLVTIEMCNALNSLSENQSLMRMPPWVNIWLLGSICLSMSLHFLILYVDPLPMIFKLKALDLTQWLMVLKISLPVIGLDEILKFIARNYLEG
T3 sequence (P04191 1-994 isoform P04191-2): as above

Compound	Skeletal SR Ca^2+ Uptake Activity Percent Increase ([1]; n = 3) [%]	EC50 ([1]; n = 3) [µM]	Cardiac SR ATPase Activity Percent Increase [2] [%]	EC50 [2] [µM]	Skeletal SR ATPase Activity Percent Increase [3] [%]	EC50 [3] [µM]	Cardiac SR Ca^2+ Uptake Activity Percent Increase [4] [%]	EC50 [4] [µM]	Compound classification from ATPase vs. Ca^2+ uptake CRCs, cardiac SR [4]	Compound classification from ATPase vs. Ca^2+ uptake CRCs, skeletal SR ([1]; skeletal SR, n = 3)	Ca^2+ uptake effect (in words), SR type not given ([1]; uncoupling compounds, cluster 5, tissue not stated)
CCC(C)N(Cc1ccc(C)cc1)Cc1nccs1 (centres unmarked) [Compound 1]	27 ± 3	28 ± 9	42 ± 12	31 ± 10	50 ± 25	40 ± 21	32 ± 2	37 ± 4	–	–	–
COc1ncc(CN(Cc2sccc2C)CC(C)C)cn1 [Compound 2]	15 ± 1	2.2 ± 0.4	33 ± 3	2.9 ± 0.6	36 ± 2	4 ± 0.5	12 ± 1	1.2 ± 0.2	–	–	–
CCCSCC(=O)N(Cc1ccc(C)s1)C1CCCC1 [Compound 3]	20 ± 1	3.4 ± 0.5	48 ± 4	6.7 ± 1	54 ± 2	7.3 ± 0.5	37 ± 3	3.5 ± 0.7	Improved Coupling Compounds	–	–
CCCN(Cc1ccccc1OC)C(=O)c1cc(C)c(C)s1 [Compound 4]	14 ± 2	1.4 ± 0.5	58 ± 4	4.8 ± 0.6	53 ± 2	5.4 ± 0.4	24 ± 1	1.6 ± 0.3	–	–	–
C=CCN(Cc1ccccc1OCC)C(=O)C1CCC1 [Compound 5]	10 ± 1	1.4 ± 0.6	58 ± 6	7.7 ± 2	41 ± 3	9 ± 1	16 ± 3	1 ± 0.7	–	–	–
CCCCN(Cc1ccsc1)C(=O)c1occc1C [Compound 6]	9 ± 1	4 ± 1	63 ± 17	29 ± 12	45 ± 8	24 ± 6	17 ± 1	3.8 ± 0.6	–	–	–
CCOC(=O)C1(CCCc2ccccc2)CCN(C(=O)CC2=CCCCC2)CC1 [Compound 7]	14 ± 2	1.4 ± 0.4	51 ± 3	2.9 ± 0.3	41 ± 3	3.6 ± 0.4	24 ± 3	1.3 ± 0.4	Linked Activating Compounds	–	–
CCOC(=O)C1(Cc2cccc(C(F)(F)F)c2)CCN(C(=O)c2sccc2C)CC1 [Compound 8]	13 ± 1	1.3 ± 0.4	43 ± 2	3.4 ± 0.3	45 ± 2	4 ± 0.4	18 ± 2	0.8 ± 0.3	–	Improved Coupling Compounds	–
CCOC(=O)C1(CCc2ccccc2)CCN(C(=O)c2occc2C)CC1 [Compound 9]	31 ± 7	8 ± 5	85 ± 5	11 ± 1	72 ± 2	13.3 ± 0.7	33 ± 3	4 ± 0.8	Linked Activating Compounds	–	–
Cc1ccc(CN(C)C(=O)CC(c2ccccc2)c2ccc3c(c2)OCO3)o1 (centres unmarked) [Compound 10]	11 ± 3	4 ± 2	55 ± 2	7.5 ± 0.4	57 ± 3	10 ± 1	16 ± 3	1.6 ± 0.7	–	–	–
CCc1cccc(NC(=O)CCC(=O)NCc2snnc2C)c1 [Compound 17]	–	–	62 ± 5	9.4 ± 1	42 ± 4	16 ± 3	–	–	–	–	little to no Ca^2+ uptake effect
